Assay results taken from patent US20090148540A1, “Antibacterial composition and method of production” (MI HOPE INCORPORATED, priority 2007, published 2009).

System: MRSA
Assay: Anti-MRSA activity on dried surface areas swabbed with MRSA broth, surveyed with MRSA selective agar plates
Format: cell-based, Staphylococcus aureus
Settings: surface areas previously swabbed with MRSA broth; treated areas dried 30 minutes; MEC DD Checker Plates; copper citrate solution (22 volts, 2.8 amps, 2 hours) diluted 1 to 10 in water
Procedure: In one protocol, the diluted copper citrate solution was applied to several dried surface areas that had been previously swabbed with an MRSA containing broth solution. The treated areas were allowed to dry over the next 30 minutes. An MRSA selective agar medium was then used to survey the areas for residual MRSA (MEC DD Checker Plates obtained from Denka Seiken, Inc., Japan). For control, similarly contaminated areas were either left untreated or exposed to the original starting 5% citric acid solution.

Compound: O=C(O)CC(O)(CC(=O)O)C(=O)O [5% citric acid solution, citric acid]
- residual MRSA growth on MRSA selective agar medium from treated surface areas: numerous MRSA colonies developed
